Literature values as cited in patent US20160250154A1, “FILM DELIVERY SYSTEM FOR ACTIVE INGREDIENTS” (MonoSol Rx, LLC, priority 2013, published 2016).

Settings: MSDS from PI Chemical

CCCCCCCCCCC(=O)O[C@H]1CC[C@H]2[C@@H]3CCC4=CC(=O)CC[C@]4(C)[C@H]3CC[C@]12C [Testosterone Undecanoate]
classification of solubility in water: insoluble in water
